{
  "source": "patent US10058584B2",
  "about": "“Methods of improving behavioral therapies” (Emory University, priority 2010, dated 2018)",
  "key": {"female voles": {"system": "female voles", "details": "OT administered; without mating 24 hrs or more needed; cited from earlier work"}, "female prairie voles": {"system": "female prairie voles", "test": "Partner preference test immediately after 6 hour cohabitation (experiment 1)", "assay_type": "in vivo, prairie vole", "details": "intraperitoneal, tested immediately after cohabitation, FIG. 1", "text": "Social bonding in prairie voles is a complex social cognitive process, which involves the synthesis of social motivation, social information process and social learning. Bonding can be efficiently assayed in the laboratory using a partner preference paradigm (Ahern, 2009). The formation of a partner preference in female prairie voles is dependent on OT (Williams, 1994). In the absence of mating, 24 hrs of cohabitation is typically needed for the development of a partner preference. However, OT administration accelerates partner preference formation to 6 hrs or less. […] Melanotan I (MTI) and Melanotan II (MTII), synthetic α-MSH analogues, which act on melanocortin ¾ receptors, and busprione (BUS), a 5-HT1a receptor partial agonist, We administered to female prairie voles and assessed partner preference. […]\nFemale prairie voles were injected intraperitoneally with either Melanotan II (1.10 mg/kg; Sigma Aldrich, St. Louis, Mo.), buspirone (8, 30 mg/kg; Sigma Aldrich, St. Louis, Mo.) or a saline control in a dissolved in a volume of 0.1 ml 0.1% sterile saline. […] The pairs were cohabitated for six hours and video recorded to monitor for sexual behavior. […] The videos were analyzed afterwards for mating attempts and animals that mated were excluded from the study. […] The time the subject spent in side by side contact with no joint motion was scored using the CleverSys Behavioral Analysis System. […]"}},
  "data": [
    {"molecule": "CC[C@H](C)[C@@H]1NC(=O)[C@H](Cc2ccc(O)cc2)NC(=O)[C@@H](N)CSSC[C@@H](C(=O)N2CCC[C@H]2C(=O)N[C@@H](CC(C)C)C(=O)NCC(N)=O)NC(=O)[C@H](CC(N)=O)NC(=O)[C@H](CCC(N)=O)NC1=O", "note": "[OT, Oxytocin]", "values": [
      {"measurement": "cohabitation period to partner preference formation", "setting": "female voles", "result": "≤ 6", "unit": "h"}
    ]},
    {"molecule": "O=C1CC2(CCCC2)CC(=O)N1CCCCN1CCN(c2ncccn2)CC1", "note": "[BUS, buspirone]", "values": [
      {"measurement": "time spent with the partner male vs. the stranger male (partner preference)", "setting": "female prairie voles; high dose", "result": "failed to spend significantly more time with either stimulus animal"},
      {"measurement": "time spent with the partner male vs. the stranger male (partner preference)", "setting": "female prairie voles; low dose", "result": "spent significantly more time with the partner male vs. the stranger male"}
    ]}
  ]
}
